According to PubChem BioAssay (NCI):
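Growth conditions: 96-well plates. Treatment: test compound, 48 hours, 5 concentrations. Analysis: linear interpolation between bracketing concentrations; unreached endpoints set to highest concentration. Here, GI50 denotes the concentration required for 50% inhibition of growth. At the TGI there is no net growth.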

Legend:
Assay in all cases: DTP human tumour cell line panel, 48 h
OVCAR-3 ovarian = test system: OVCAR-3 ovarian
NCI-H23 lung = test system: NCI-H23 lung
HOP-92 NSCLC = test system: HOP-92 NSCLC
NCI-H460 lung = test system: NCI-H460 lung
RXF 393 renal = test system: RXF 393 renal
IGROV1 ovarian = test system: IGROV1 ovarian
COLO 205 colon = test system: COLO 205 colon
RPMI-8226 leukemia = test system: RPMI-8226 leukemia
NCI-H226 lung = test system: NCI-H226 lung
MDA-MB-435 = test system: MDA-MB-435

Structure (SMILES) | TGI (OVCAR-3 ovarian) [µM] | TGI (NCI-H23 lung) [µM] | TGI (HOP-92 NSCLC) [µM] | TGI (NCI-H460 lung) [µM] | TGI (RXF 393 renal) [µM] | TGI (IGROV1 ovarian) [µM] | TGI (COLO 205 colon) [µM] | TGI (RPMI-8226 leukemia) [µM] | TGI (NCI-H226 lung) [µM] | GI50 (MDA-MB-435) [µM] | TGI (MDA-MB-435) [µM] | GI50 (NCI-H226 lung) [µM] | GI50 (OVCAR-3 ovarian) [µM] | GI50 (NCI-H23 lung) [µM] | GI50 (HOP-92 NSCLC) [µM] | GI50 (NCI-H460 lung) [µM] | GI50 (RXF 393 renal) [µM] | GI50 (IGROV1 ovarian) [µM] | GI50 (COLO 205 colon) [µM] | GI50 (RPMI-8226 leukemia) [µM]
O=C1C2CC=CCC2C(=O)C12CCc1ccccc12 (stereo not drawn) | > 100 | > 100 | > 100 | > 100 | > 100 | > 100 | > 100 | – | – | – | – | – | – | – | – | – | – | – | – | –
COc1cc2cc3c4c(cc(OC)c(OC)c4c2cc1OC)CCN3C(=O)N(C)C | > 100 | > 10 | > 100 | > 100 | > 100 | > 100 | > 100 | > 100 | > 100 | – | – | – | – | – | – | – | – | – | – | –
Nc1nc2ccc3[nH]ncc3c2c2c1CCCC2 | 9.87 | 3.12 | 7.79 | 4.56 | 1.77 | 11.2 | 10.1 | – | 4.59 | 1.52 | 3.36 | 1.48 | 2.78 | 1.41 | 2.09 | 1.6 | 0.399 | 2.29 | 2.09 | –
C/C(CC(=O)Nc1ccc(Cl)cc1)=N\NC(=O)C[n+]1ccccc1 | > 100 | > 100 | > 100 | > 100 | > 100 | > 100 | > 100 | > 100 | > 100 | – | – | – | – | – | – | – | – | – | – | –
Cc1ccc(C(=O)N2c3ccccc3N(C)n3cccc3C2CC(=O)O)cc1 (stereo not drawn) | > 100 | > 100 | > 100 | > 100 | > 100 | > 100 | > 100 | > 100 | > 100 | – | – | – | – | – | – | – | – | – | – | –
CC(C)(c1ccc(Oc2ccc(C#N)c(C#N)c2)cc1)c1ccc(Oc2ccc(C#N)c(C#N)c2)cc1 | > 100 | > 100 | > 100 | > 100 | > 100 | > 100 | > 100 | > 100 | – | – | – | – | > 100 | > 100 | > 100 | > 100 | > 100 | > 100 | > 100 | > 100
COC1=C2C[C@H](O)C(C)C[C@@]2(OC)OC1=O (stereo partly drawn) | > 100 | > 100 | > 100 | > 100 | > 100 | > 100 | > 100 | > 100 | – | – | – | – | – | – | – | – | – | – | – | –
CC1(C)CCC[C@]2(C)c3cc(O)ccc3CC[C@@H]12 | 34.3 | 34.3 | – | 40.9 | 35.1 | 38.8 | 46 | 30.4 | 35.4 | 6.65 | 21 | 18.2 | 17 | 17.3 | – | 18.6 | 16.1 | 20.4 | 20.4 | 12.3
CC(C)(O)[C@@H]1CC[C@@]2(C)CCC[C@H](O)[C@H]2C1 | > 100 | > 100 | > 100 | > 100 | – | > 100 | > 100 | > 100 | > 100 | – | – | – | – | – | – | – | – | – | – | –
Clc1ccc(C(c2ccc(Cl)cc2)N2CCNCC2)cc1 | 4.13 | 21.6 | 10.6 | 4.65 | 9.75 | 3.17 | 4.28 | 4.66 | – | – | 3.63 | – | – | – | – | – | – | – | – | –
CC(=O)C1COC(O)C1C (stereo not drawn) | 37 | 31.7 | 78.7 | 44.5 | – | 42.5 | 34.5 | 60 | 43.4 | – | 30.2 | – | – | – | – | – | – | – | – | –
O=[P+](O)c1cc2ccccc2c2ccccc12 | > 100 | > 100 | – | > 100 | > 100 | > 100 | > 100 | > 100 | > 100 | – | – | – | – | – | – | – | – | – | – | –
CSc1nc(SC)c2c(C(N)=S)[nH]nc2n1 | 57.8 | 66.3 | 50.4 | 64.8 | 61 | 94.4 | 35.7 | 67.8 | 62.6 | – | – | – | – | – | – | – | – | – | – | –
COC(=O)[C@@]1(O)CC(C)C=C1C=O (stereo partly drawn) | > 100 | > 100 | > 100 | 42.1 | 42.9 | > 100 | > 100 | > 100 | > 100 | – | – | – | – | – | – | – | – | – | – | –
O=C1C(Cl)=C(Nc2cccc(O)c2)C(=O)N1Cc1ccc(Cl)cc1 | 5.86 | 8.31 | – | 14 | > 100 | 40 | 20.8 | > 100 | 4.91 | 1.22 | 10.1 | 1.21 | 1.43 | 2.17 | – | 2.87 | 3.95 | 3.93 | 3.38 | 1.07
COc1ccc(-c2nnc(-c3c(C)n(C)n(-c4ccccc4)c3=O)o2)cc1 | > 100 | > 100 | > 100 | > 100 | > 100 | > 100 | > 100 | > 100 | > 100 | – | – | – | – | – | – | – | – | – | – | –
CCCCCCCC(=O)OCC1OC(n2cc(F)c(=O)[nH]c2=O)C(NC(=O)OCc2ccccc2)C(O)C1O (stereo not drawn) | > 100 | > 100 | 65.2 | > 100 | > 100 | > 100 | > 100 | 91.7 | – | – | – | – | – | – | – | – | – | – | – | –
COc1cc([C@H]2c3cc4c(cc3[C@H](NCc3ccc([N+](=O)[O-])cc3)C3COC(=O)[C@H]32)OCO4)cc(OC)c1O (stereo partly drawn) | 40 | 1.91 | > 100 | 2.18 | > 64.6 | > 61.3 | > 43.9 | > 25.6 | 1.68 | – | – | – | – | – | – | – | – | – | – | –
CCC(=O)C(C)C(=O)C(=O)C(=O)OC (stereo not drawn) | > 100 | > 100 | > 100 | > 100 | 99.3 | > 100 | > 100 | > 100 | > 100 | – | – | – | – | – | – | – | – | – | – | –
O=C1[C@H]2ON(c3ccccc3)C(c3ccccc3F)[C@H]2C(=O)N1c1ccc(Cc2ccc(N3C(=O)[C@@H]4ON(c5ccccc5)C(c5ccccc5F)[C@@H]4C3=O)cc2)cc1 (stereo partly drawn) | > 100 | > 100 | > 100 | > 100 | > 100 | > 100 | > 100 | > 100 | > 100 | – | – | – | – | – | – | – | – | – | – | –
